According to patent US12171745B2, “Compositions and methods for treating non-hemorrhagic closed head injury” (Boulder BioScience LLC, priority 2022, dated 2024):

Key:
[1] = system: Moderate-to-Severe TBI in the Sprague Dawley Rat; assay: Extracellular Vesicle (EV) isolation and measurement after lateral fluid percussion TBI; type: in vivo; details: plasma EVs 1 day post-surgery, NTA
Excerpt: (§1) Evaluation of 3,3′-diindolylmethane (DIM) in a clinically relevant animal model of Traumatic Brain Injury (TBI) utilized the Lateral Fluid Percussion (LFP) brain injury method. LFP is the most established and frequently used method for evaluating mixed focal and diffuse brain injury (Thompson H J, Lifshitz J, Marklund N, Grady M S, Graham D I, Hovda D A, McIntosh T K. Lateral fluid percussion brain injury: a 15-year review and evaluation. J Neurotrauma. 2005 January; 22(1):42-75.). Using rats, the parasagittal LFP model recreates the physiological, pathological, and neurobehavioral sequela of TBI in humans. […] Over the days following surgery, rats were assessed for sensorimotor deficits, associative learning and memory, cortical and hippocampal edema, Extracellular Vesicle (EV) levels, and histopathological damage. […]
(§2) Approximately 12-24 h after the preparation surgery, the rats were anesthetized with 3% isoflurane, 70% nitrous oxide and 30% oxygen, intubated, connected to a respirator, and ventilated to be maintained on 1-3% isoflurane in a mixture of 70% nitrous oxide and oxygen. […] Following administration of pancuronium, TBI DIM Premix and Vehicle group rats inspired oxygen was reduced to 21% to maintain blood pO2 levels at approximately 85-95 mmHg. pCO2 levels were monitored to remain at physiological levels of 34 to 46 mmHg. […]

[2] = system: Moderate-to-Severe TBI in the Sprague Dawley Rat; assay: Histology analysis (H&E, NeuN) after lateral fluid percussion TBI; type: in vivo; details: 10 days post FPI
Excerpt: as §1, §2

[3] = Eur. J. Pharmacol. 2022; 919:174812; cited from earlier work
[4] = Solubility of aripiprazole in the SMEDDS DIM formulation
[5] = Clin. Cancer Res. 10:5233-5241 (2004); cited from earlier work

c1ccc2c(Cc3c[nH]c4ccccc34)c[nH]c2c1 [DIM, 3,3′-diindolylmethane]
EV concentration (numbers) ([1]; versus TBI Vehicle, p=0.0415): prevented the significant increase in EV numbers
EV particle size ([1]; versus untreated TBI animals, p=0.0117): maintenance of a larger EV particle size
Animals with cortical contusion absent [2]: 50%
Anti-thrombotic activity [3]: anti-thrombotic activity
Bleeding time [3]: prolong bleeding time

O=C1CCc2ccc(OCCCCN3CCN(c4cccc(Cl)c4Cl)CC3)cc2N1 [aripiprazole]
Solubility of the aripiprazole in the SMEDDS DIM formulation [4]: approximately 1.5%
Dissolution of aripiprazole in SMEDDS DIM, observation ([4]; 1.2% (10 mg aripiprazole, 0.81 grams SMEDDS DIM), stored overnight, warmed to about 35 degrees C.): all had dissolved
Aripiprazole still in suspension ([4]; 2.0% (10 mg aripiprazole, 0.49 grams SMEDDS DIM)): less than 2 mg
Dissolution of aripiprazole in SMEDDS DIM, observation ([4]; 2.0% (10 mg aripiprazole, 0.49 grams SMEDDS DIM), stored overnight, warmed to about 35 degrees C.): had not quite dissolved
Dissolution of aripiprazole in SMEDDS DIM, observation ([4]; 5.0% (25 mg aripiprazole, 0.475 grams SMEDDS DIM)): white solids clearly present
Dissolution of aripiprazole in SMEDDS DIM, observation ([4]; 10% (50 mg aripiprazole, 0.45 grams SMEDDS DIM)): white solids clearly present
Dose of aripiprazole that can be dissolved ([4]; in standard dose of 100 mg DIM contained in 825 mg of the SMEDDS DIM): up to 10 mg

OCc1c[nH]c2ccccc12 [indole-3-carbinol]
Conversion in vivo [5]: converts to DIM and LTR in vivo
